From patent US20250375544A1, “DUAL MODE RADIOTRACER AND -THERAPEUTICS” (TECHNISCHE UNIVERSITÄT MÜNCHEN, priority 2021, published 2025)

Key:
[1] = ^177Lu-labeled compound, n = 6
[2] = Wangler et al., Bioconjug Chem. 2010; cited from earlier work
LNCaP cells = type: cell-based, human; details: 1 h, 37° C., 1.0 nM ^177Lu-compound, normalized to ([^125I]I-BA)KuE
[3] = system: LNCaP tumor xenograft-bearing CB17-SCID mouse; test: Metabolite analysis 1 h p.i. (radio-RP-HPLC of organ and body fluid extracts); type: in vivo, mice
Experimental: […] (9.64 MBq) was injected into the tail vein of a LNCaP tumor xenograft-bearing CB17-SCID mouse. The animal was sacrificed 1 h p.i. and subjected to the standard procedure for biodistribution studies. In addition, urine was taken from all mice that were investigated in this experiment (8.4-9.0 MBq) and pooled (n=5). Relevant dissected organs (tumor, kidneys, liver) and body fluids (blood and urine) were collected, homogenized if necessary and subjected to mechanochemical as well as solid phase extraction (SPE).
Four 2 mL LoBind tubes were equipped with steel and ceramic beads from Lysis Tubes W (analytikjena, Jena, Germany) for kidneys, tumor and liver (bisected). 1 mL radioimmunoprecipitation assay (RIPA) buffer containing 2.0 μmol of 2-PMPA was added to each tube and the organs were homogenized with a MM-400 ball mill (Retsch GmbH, Haan, Germany) at 30 Hz for 20 min. Afterwards, the homogenates were transferred to LoBind tubes free from steel and ceramic beads and centrifuged (15,200 rpm, 10 min, 21° C.). The first supernatants were stored, and the precipitates were again subjected to mechanochemical extraction with 1 mL RIPA buffer (2.0 μmol PMPA) at 30 Hz for 20 min. After centrifugation (15,200 rpm, 10 min, 21° C.), also the second supernatants were kept for SPE.
After cardiac puncture, 1 mL Tracepur®-H2O was directly added to the collected blood sample and centrifuged twice (13,000 rpm, 5 min) to separate the plasma from the blood cells. The precipitate was dissolved in 500 μL Tracepur®-H2O and together with the first supernatant again centrifuged (13,000 rpm, 5 min). Both supernatants were kept for SPE.
Pooled urine samples were centrifuged (13,000 rpm, 5 min) and the supernatant was directly analyzed via radio-RP-HPLC.
For solid phase extraction, the supernatants were loaded onto Strata-X cartridges (200 mg), which were preconditioned with 5 mL MeOH and 5 mL H2O (eight cartridges in total, for all organ and blood supernatants). The cartridges were washed with 1 mL Tracepur®-H2O and dried prior to elution. For each cartridge, 750 μL of MeCN/H2O (6/4, 0.1% TFA) were used for elution and the extracts were analyzed via radio-RP-HPLC.
Besides biodistribution and μSPECT/CT studies, [^177Lu]Lu-11 (tetrazole) was analyzed according to its metabolic stability 1 h p.i. Relevant dissected organs (tumor, kidney, liver) and body fluids (blood and urine) were collected, homogenized if necessary and subjected to extraction of the incorporated activity. […] The respective radio-RP-HPLC analyses of extracts from homogenized organs and body fluids are depicted in FIG. 10.

[4] = system: LNCaP tumor xenograft-bearing CB17-SCID mice; test: Biodistribution in LNCaP tumor xenograft-bearing CB17-SCID mice

With `CSCC[C@H](NC(=O)CC[C@H](NC(=O)N[C@@H](CCC(=O)N[C@H](CCCNC(=O)CCC(=O)NCCCC[C@@H](NC(=O)[C@@H](CNC(=O)c1ccc([Si](F)(C(C)(C)C)C(C)(C)C)cc1)NC(=O)CN1CCN(CC(=O)O)CCN(CC(=O)O)CCN(CC(=O)O)CC1)C(=O)O)C(=O)O)C(=O)O)C(=O)O)C(=O)O` [Compound 5, Proinhibitor I] the “log D” value [1] was −2.89±0.18.

For “SIFA-Asn(AcNH-p-Glc)-PEG-Tyr^3-octreotate”, the “log P(ow)” value [2] is given as 0.96.

For `CC(C)(C)[Si](F)(c1ccc(C(=O)NCC(NC(=O)CN2CCN(CC(=O)[O-])CCN(CC(=O)[O-])CCN(CC(=O)[O-])CC2)C(=O)NC(CCCCNC(=O)CCC(=O)NCCCC(NC(=O)CCC(NC(=O)NC(CCc2nnn[nH]2)C(=O)O)C(=O)O)C(=O)O)C(=O)O)cc1)C(C)(C)C.[177Lu+3]` (centres unmarked) [[^177Lu]Lu-11, [^177Lu]Lu-Tetrazole Derivative 11], the “% Internalization compared to the reference” value (LNCaP cells) was 9.9±3.2%, the “metabolite with higher hydrophilicity, amount” value ([3]; blood) was 8.5% and the “metabolite with higher hydrophilicity, amount” value ([3]; kidney) was 11.7%. The “metabolite with higher hydrophilicity” value ([3]; liver homogenate) was “not detectable”, the “more lipophilic metabolite (tR=20.5 min), amount” value ([3]; liver homogenate) was 28.0% and the “metabolite with higher hydrophilicity, amount” value ([3]; tumor) was 7.1%. The “metabolite with higher hydrophilicity, amount” value ([3]; urine) was 18.7%, the “Biodistribution Adrenals” value ([4]; 1 h p.i.) was 0.61 ± 0.42 % ID/g and the “Biodistribution Blood” value ([4]; 1 h p.i.) was 1.09 ± 0.30 % ID/g. The “Biodistribution Bone” value ([4]; 1 h p.i.) was 0.47 ± 0.44 % ID/g, the “Biodistribution Heart” value ([4]; 1 h p.i.) was 0.41 ± 0.04 % ID/g and the “Biodistribution Intestine” value ([4]; 1 h p.i.) was 0.67 ± 0.21 % ID/g. The “Biodistribution Kidneys” value ([4]; 1 h p.i.) was 33.2±3.8 % ID/g, the “Biodistribution Liver” value ([4]; 1 h p.i.) was 0.74 ± 0.17 % ID/g and the “Biodistribution Lung” value ([4]; 1 h p.i.) was 1.23 ± 0.27 % ID/g. For the same molecule, the “Biodistribution Muscle” value ([4]; 1 h p.i.) was 0.15 ± 0.03 % ID/g, the “Biodistribution Pancreas” value ([4]; 1 h p.i.) was 0.33 ± 0.11 % ID/g and the “Biodistribution Parotid gland” value ([4]; 1 h p.i.) was 0.56 ± 0.08 % ID/g. The “Biodistribution Spleen” value ([4]; 1 h p.i.) was 1.04 ± 0.15 % ID/g, the “Biodistribution Stomach” value ([4]; 1 h p.i.) was 1.55 ± 1.67 % ID/g and the “Biodistribution Submandibular gland” value ([4]; 1 h p.i.) was 0.40 ± 0.05 % ID/g. For the same molecule, the “Biodistribution Tumor” value ([4]; 1 h p.i.) was 3.40±0.63 % ID/g, the “Ratio Tumor-to-blood” value ([4]; 1 h p.i.) was 3.46 ± 1.62 and the “Ratio Tumor-to-kidney” value ([4]; 1 h p.i.) was 0.10 ± 0.03. The “Ratio Tumor-to-liver” value ([4]; 1 h p.i.) was 5.00 ± 2.11, the “Ratio Tumor-to-muscle” value ([4]; 1 h p.i.) was 24.9 ± 10.2 and the “Ratio Tumor-to-parotid gland” value ([4]; 1 h p.i.) was 6.20 ± 1.74. For the same molecule, the “Ratio Tumor-to-submandibular gland” value ([4]; 1 h p.i.) was 8.74 ± 2.52, the “tumor-to-submandibularis and -parotidea ratios at 1 h p.i. compared to respective values at 24 h p.i.” value ([4]; 1 h p.i. vs 24 h p.i.) was “two-fold lower” and the “Biodistribution Adrenals” value ([4]; 24 h p.i.) was 0.17 ± 0.19 % ID/g. For the same molecule, the “Biodistribution Blood” value ([4]; 24 h p.i.) was 0.00 ± 0.00 % ID/g, the “Biodistribution Bone” value ([4]; 24 h p.i.) was 0.18 ± 0.04 % ID/g and the “Biodistribution Heart” value ([4]; 24 h p.i.) was 0.02 ± 0.00 % ID/g. The “Biodistribution Intestine” value ([4]; 24 h p.i.) was 0.52 ± 0.68 % ID/g, the “Biodistribution Kidneys” value ([4]; 24 h p.i.) was 3.23 ± 0.77 % ID/g and the “Biodistribution Liver” value ([4]; 24 h p.i.) was 0.18 ± 0.04 % ID/g. The “Biodistribution Lung” value ([4]; 24 h p.i.) was 0.05 ± 0.02 % ID/g, the “Biodistribution Muscle” value ([4]; 24 h p.i.) was 0.02 ± 0.01 % ID/g and the “Biodistribution Pancreas” value ([4]; 24 h p.i.) was 0.02 ± 0.00 % ID/g. For the same molecule, the “Biodistribution Parotid gland” value ([4]; 24 h p.i.) was 0.06 ± 0.02 % ID/g, the “Biodistribution Spleen” value ([4]; 24 h p.i.) was 0.11 ± 0.03 % ID/g and the “Biodistribution Stomach” value ([4]; 24 h p.i.) was 0.12 ± 0.11 % ID/g. For the same molecule, the “Biodistribution Submandibular gland” value ([4]; 24 h p.i.) was 0.04 ± 0.01 % ID/g, the “Biodistribution Tumor” value ([4]; 24 h p.i.) was 0.68 ± 0.16 % ID/g and the “Ratio Tumor-to-blood” value ([4]; 24 h p.i.) was 227 ± 50. The “Ratio Tumor-to-kidney” value ([4]; 24 h p.i.) was 0.22 ± 0.06, the “Ratio Tumor-to-liver” value ([4]; 24 h p.i.) was 3.74 ± 0.50 and the “Ratio Tumor-to-muscle” value ([4]; 24 h p.i.) was 55.9 ± 24.3. For the same molecule, the “Ratio Tumor-to-parotid gland” value ([4]; 24 h p.i.) was 12.2 ± 1.7, the “Ratio Tumor-to-submandibular gland” value ([4]; 24 h p.i.) was 16.9 ± 2.2 and the “factor by which tumor-to-submandibular gland and tumor-to-parotid gland ratios declined” value ([4]; 24 h p.i., in comparison to [^177Lu]Lu-PSMA-10) was 8.
